Assay [1] deals with TNFα production in human whole blood. In words: Inhibition of the production of TNFα in vitro in human whole blood (Test Examples 1 and 1′). Type of assay: cell-based. To be noted: Table 7′, lipopolysaccharide 10 μg/ml, 6 hours at 37° C., plasma TNFα by ELISA, least squares, read-out: Inhibitory Effect on TNFα Production (in vitro) IC50. The procedure:
(§1) Inhibition of the Production of the Cytokines IL-1β and TNFα in Vitro in Human Whole Blood
(§2) This test was performed according to the method of Hartman, et al. [D. A. Hartman, S. J. Ochalski and R. P. Carlson; The effects of anti-inflammatory and antiallergic drugs on cytokine release after stimulation of human whole blood by lipopolysaccharide and zymosan A: Inflamm. Res., 44, 269 (1995)].
(§3) Peripheral blood samples were collected in the presence of heparin from healthy adult volunteers. 1000 μl of whole blood were added to an Eppendorf tube to which 2 μl of a dimethyl sulfoxide solution of the test compound had been added in advance, after which 10 μl of lipopolysaccharide (E. coli 026: B6 origin, Difco) were added as a stimulant (final concentration of said lipopolysaccharide: 10 μg/ml). This was mixed well and then incubated for 6 hours at 37° C. in the presence of 5% CO2. At the end of the incubation, the mixture was cooled to 4° C. to stop the reaction, followed immediately by centrifuging for 5 minutes at 14,000 rpm to separate and collect the supernatant plasma. The IL-1β and TNFα produced and released into the plasma were measured using a commercially available enzyme immunoassay (ELISA) kit [Cayman (IL-1β) and Genzyme (TNFα)]. The procedure was also repeated in the absence of test compound. The inhibitory effect [IC50 (μM)] on the production of IL-1β and TNFα was determined from the amounts of the cytokines produced in the presence and absence of the test compound.
(§4) Inhibition of the Production of the Cytokines IL-1β and TNFα In Vitro in Human Whole Blood
as §3, with “O26:” for “026:”, “plasma” for “plasma.”, “kits” for “kit”, “determined by the method of least squares” for “determined”
On the technique in general: ELISA stands for enzyme-linked immunosorbent assay.

Assay [2] relates to IL-1β production in human whole blood. In words: Inhibition of the production of IL-1β in vitro in human whole blood (Test Examples 1 and 1′). Type of assay: cell-based. Conditions: Table 8′, lipopolysaccharide 10 μg/ml, 6 hours at 37° C., plasma IL-1β by ELISA, least squares, read-out: Inhibitory Effect on IL-1β Production (in vitro) IC50. As to the method: as §1, §2, §3, §4
as §3, with “O26:” for “026:”, “plasma” for “plasma.”, “kits” for “kit”, “determined by the method of least squares” for “determined”

The test system of assay [3] is adjuvant-induced arthritis. Kind of assay: Activity in preventing the development of adjuvant-induced arthritis in vivo (Test Examples 4 and 4′). To be noted: Table 10′; Lewis rat, oral once a day from day 0 to day 20, inhibition of swelling of injected foot on day 21. As to the method: The test was performed according to the method described by Winder et al. (Arthritis Rheum., 12, 472–482, 1969). Heat-killed dried Mycobacterium butyricum (Difco Laboratories, Lot 679123) was ground on an agate mortar, and was then suspended in dry-sterilised liquid paraffin (first grade, Wako Pure Chemical Industries, Ltd.) to make a 2 ml suspension. The resulting suspension was then sonicated and used as an adjuvant. Arthritis was induced by the intradermal injection of the adjuvant (100 μg of heat killed dried bacterium/0.05 ml of paraffin/paw) into the heel of the right hind paw of a Lewis rat (male, age 8 weeks, Japan Charles River). […] The volumes of the swollen feet (adjuvant-injected right hind foot volume—non-injected left hind foot volume) were calculated. The percent inhibition of swelling of the injected foot of the treated animals as compared to that of the control animals on day 21 was calculated as follows. […] ID50 values were calculated using this curve. […] […]

The term IC50 denotes the concentration that inhibits the measured activity by half. For the compound `CC1C[C@H]2C=C(c3c[nH]c(-c4ccc(F)cc4)c3-c3ccncc3)CCN2C1` (stereo partly drawn) [Example 16′, 2-(4-Fluorophenyl)-4-[(8aS)-2-methyl-1,2,3,5,6,8a-hexahydroindolizin-7-yl]-3-(pyridin-4-yl)1H-pyrrole], the IC50 in assay [1] worked out at 2.2 nM; in assay [2], 1.7 nM. Also, the “Activity in Preventing the Development of Adjuvant-Induced Arthritis in vivo IC50” value in assay [3] is reported as 1.2 mg/kg.
